This is an account of results in ChEMBL document CHEMBL5726657, “Substituted pyrrolo[3,4-e]indolizines, imidazo[1,2-a]pyrrolo[3,4-e]pyridines, pyrrolo[3,4-e][1,2,4]triazolo[1,5-a]pyridines and pyrrolo[3,4-e][1,2,4]triazolo[4,3-a]pyridines as positive allosteric modulators of muscarinic acetylcholine receptor M1” (2019).

This assay concerns the target T1, Muscarinic acetylcholine receptor M1 (Homo sapiens, UniProt P11229).
T1 sequence (P11229 whole entry): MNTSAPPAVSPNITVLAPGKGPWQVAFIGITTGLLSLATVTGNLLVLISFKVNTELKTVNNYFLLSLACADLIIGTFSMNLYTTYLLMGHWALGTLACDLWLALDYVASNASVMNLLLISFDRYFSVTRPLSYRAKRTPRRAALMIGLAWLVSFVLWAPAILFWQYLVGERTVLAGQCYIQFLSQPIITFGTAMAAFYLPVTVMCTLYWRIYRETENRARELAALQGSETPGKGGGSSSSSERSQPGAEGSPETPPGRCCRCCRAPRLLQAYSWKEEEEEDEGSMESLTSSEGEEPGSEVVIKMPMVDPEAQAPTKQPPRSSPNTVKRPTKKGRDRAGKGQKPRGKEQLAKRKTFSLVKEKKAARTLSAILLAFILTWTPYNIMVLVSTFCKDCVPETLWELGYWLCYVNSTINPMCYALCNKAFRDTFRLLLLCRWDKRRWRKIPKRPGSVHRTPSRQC
The assay can be described thus: Cell-Based Functional Assay of Muscarinic Acetylcholine Receptor: For high throughput measurement of agonist-evoked increases in intracellular calcium, CHO-K1 cells stably expressing muscarinic receptors were plated in growth medium lacking G418 and hygromycin at 15,000 cells/20 μL/well in Greiner 384-well black-walled, tissue culture (TC)-treated, clear-bottom plates (VWR). Cells were incubated overnight at 37° C. and 5% CO2. The next day, cells were washed using an ELX 405 (BioTek) with four washes (80 μL) of assay buffer then aspirated to 20 μL. Next, 20 μL of 16 μM Fluo-4/acetoxymethyl ester (Invitrogen, Carlsbad, Calif.) prepared as a 2.3 mM stock in DMSO and mixed in a 1:1 ratio with 10% (w/v) Pluronic F-127 and diluted in assay buffer was added to the wells and the cell plates were incubated for 50 min at 37° C. and 5% CO2. Dye was removed by washing with the ELX 405 (four 80 μL washes of assay buffer) then aspirated to 20 μL. Compound master plates were formatted in an 11 point CRC format (1:3 dilutions) in 100% DMSO with a starting concentration of 10 mM using the BRAVO liquid handler (Agilent). […].

Consider `Cn1cc2cc(-c3cc(F)c(CN4Cc5ccc6nccn6c5C4=O)c(F)c3)ccc2n1`, for which the EC50 was found to be 10 µM.
